How the values were obtained:
[1] = molecular target: T1, β2AR (Homo sapiens, UniProt P07550); test: cAMP FRET sensor (TEpacVV) agonist assay in HEK 293 cells; assay type: cell-based; conditions: for intracellular cAMP level: addition of probe to the cells, 60 min at room temperature (Suppl. Fig. 13)
Method: Upon cAMP binding, the sensor undergoes a conformational change resulting in a decrease of the FRET efficiency between two fluorescent proteins: mTurquoise - a version of cyan fluorescent protein (CFP) as the donor, and yellow fluorescent protein (YFP) as the acceptor (Fig. 3a).
The intracellular cyclic adenosine monophosphate (cAMP) levels were determined with HEK 293 cells expressing a 3′,5′-cAMP FRET sensor. The cells were a generous gift from Ruud Hovius from École poly-technique fédérale de Lausanne (EPFL). The cAMP production induces a conformational switch in ^TEpac^VV and causes a decrease in FRET efficiency, i.e. a decreased energy transfer between the two fluorescent proteins (donor mTurquoise and acceptor YFP)[32].
The culture was maintained by subculturing the cells every 4 to 5 days using the standard trypsinization procedure. Before measurements, cells were trypsinated and transferred in a 96-well glass bottom plate (MatTek Corporation; Cat. No. P96GC-1.5–5-F) to contain 10,000–30,000 cells per well in 200 µL of DMEM media. After 24 h incubation in 5% CO2 at 37 °C, the cells were washed with HBSS pH 7.2 (200 µL), and the wells were filled with 200 µL HBSS. The DMSO stock solutions of the fluorescent probes were diluted 5,000 times in HBSS and used in experiments. […] The fluorescent ligand solutions of different concentrations in HBSS were premixed with the isoprenaline solution. 50 µL of a final solution was added to each well and the measurement was started upon addition and continued for 1 h in 10 min intervals between the readouts (inclusive).
The ligands were added using an automated pipette to initiate the sensor response. FRET readout from the cAMP sensor was performed on a multiwell plate reader Spark 20 M (Tecan) at room temperature (25 °C). Fluorescence readout amplitudes were calculated from time series for different ligand concentrations, following background subtraction (media only). […] Data were derived from 3 independent experiments and each independent experiment was performed in triplicate.
Sensor response R(CFP/FRET) was calculated using (1):1 R(CFP/FRET)=(FimTurquoise−FbkgmTurquoise)/(FiFRET−FbkgFRET) where F i ^mTurquoise – mTurquoise fluorescence intensity in the wells with cells; F bkg ^mTurquoise - mTurquoise fluorescence intensity in the control wells without cells; F i ^FRET – FRET signal intensity in the wells with cells; F bkg ^FRET – FRET signal intensity in the control wells without cells. For every result, R(CFP/FRET) ratio was normalized to the R(CFP/FRET) response of DMSO sample.

[2] = molecular target: T1, β2AR; test: TR-FRET receptor-ligand saturation binding assay, Tag-lite β2AR cells; conditions: for binding selectivity β2AR over β1AR: TR-FRET assay, ratio of Kd app; for Kd: β2AR, 2 h at room temperature, read-out: Kd app
Method: To confirm whether the affinity of carazolol-KK114 (24) is sufficient for the intended imaging experiments and to evaluate its β2/β1AR selectivity, we performed a TR-FRET assay in Tag-lite β1AR or β2AR transfected cells (Cisbio) labeled with Tb^3+ cryptate (Lumi4-Tb) (Fig. 3c)[39]. […] (Fig. 3d, Supplementary Fig. 5b). The high affinities of both fluorescent ligands enabled the imaging experiments.
K d determination was performed on Tag-lite β1AR (Cisbio, Cat. No. C1TT1BETA1) or β2AR (Cisbio, Cat. No. C1TT1BETA2) Tb^3+ cryptate labeled transfected cells. The β1AR or β2AR cells labeled with SNAP-Terbium interact with the specific ligand labeled with the corresponding fluorophore. The fraction of bound ligand is proportional to the FRET signal. Donor Tb^3+ cryptate: exc. 340 nm, em. 490 nm, 546 nm, 583 nm, 620 nm; acceptor KK114: exc. 630 nm, em. 655 nm. The cells were thawed and suspended in 4.5 ml Tag-lite buffer (Cisbio, Cat. No. LABMED) according to the product information and transferred to half-area white polystyrene 96 well plates (Sigma, Cat. No. CLS3693) by 20 µl per well. 20 µl of a fluorescent probe or control compound in Tag-lite buffer was added to each well and incubated for 2 h at room temperature (20 °C) before readout. FRET readout was performed on a multiwell plate reader Spark 20 M (Tecan) at room temperature. […] All probe and control compound dilutions were prepared in DMSO, so that the final DMSO concentration was kept constant throughout the titration series. The ratio of the acceptor and donor emission signals was calculated for each individual well using equation (3):3 Ratio=Signal655nm−BackgroundSignal/Signal620nm−BackgroundSignal
Luminescence background signal was measured in wells containing 40 µl of Tag-lite buffer only. Specific binding was calculated by subtracting nonspecific binding ratio from total binding ratio at each fluorescent ligand concentration. K d ^app is determined by fitting data using GraphPad Prism 6 to one site specific binding with Hill slope equation (4):4 Specificsingalratio=A∗[probe]^h/(Kdapp)^h+[probe]^h
A is amplitude of specific signal ratio, [probe] - probe concentration, K d ^app - the ligand concentration needed to achieve a half-maximum binding at equilibrium, h - the Hill slope.

[3] = molecular target: T1, β2AR; test: Staining and competitive binding in CAPAN-1 cells at endogenous β2AR expression; assay type: cell-based; conditions: for receptor staining: 100 nM probe; for competitive binding with excess unlabeled ligand: 100 nM probe (5 nM ab118171) with 10 µM BI-167107 or carazolol
Method: To study the selectivity of β2AR staining at the endogenous expression levels, which are much lower compared to those in transiently β2AR expressing U2OS cells, we tested the performance of BI-167107 probes in pancreatic CAPAN-1 cells (Fig. 7c–f). […] Low density of β2AR in the plasma membrane of CAPAN-1 cells allowed us to measure of the lateral resolution in the STED images. When the cells were incubated with 100 nM BI-PEG-KK114 (18) ligand, we observed two-fold improvement in the resolution resulting in apparent structures of ~100 nm (Fig. 7d; Supplementary Table 4).
For staining of CAPAN-1 cells, fluorescent probes or mixtures of a probe and a competitor were incubated in McCoy’s 5a Medium Modified supplemented with 10% fetal bovine serum (FBS) for 30–40 min at room temperature. Afterwards, the samples were washed two times with HBSS, and cells were imaged in DMEM (Thermo Fisher Scientific) supplemented with GlutaMAX-1 (Thermo Fisher Scientific) and 10% fetal bovine serum (FBS). Imaging performed on Leica SP8 (Leica Microsystems) or Abberior STED (Abberior Instruments GmbH) microscopes.

[4] = pH dependence of ligand fluorescence; assay type: physicochemical
Method: pH dependence of βAR ligands fluorescence were recorded on a multiwell plate reader Spark 20 M (Tecan) in 96-well glass bottom plates (MatTek Corporation; Cat. No. PBK96G-1.5-5-F) in PBS solutions (pH 4.7–8.0) at room temperature (25 °C). The 100x stock solutions of ligands were prepared in DMSO.

T1 sequence (P07550 whole entry): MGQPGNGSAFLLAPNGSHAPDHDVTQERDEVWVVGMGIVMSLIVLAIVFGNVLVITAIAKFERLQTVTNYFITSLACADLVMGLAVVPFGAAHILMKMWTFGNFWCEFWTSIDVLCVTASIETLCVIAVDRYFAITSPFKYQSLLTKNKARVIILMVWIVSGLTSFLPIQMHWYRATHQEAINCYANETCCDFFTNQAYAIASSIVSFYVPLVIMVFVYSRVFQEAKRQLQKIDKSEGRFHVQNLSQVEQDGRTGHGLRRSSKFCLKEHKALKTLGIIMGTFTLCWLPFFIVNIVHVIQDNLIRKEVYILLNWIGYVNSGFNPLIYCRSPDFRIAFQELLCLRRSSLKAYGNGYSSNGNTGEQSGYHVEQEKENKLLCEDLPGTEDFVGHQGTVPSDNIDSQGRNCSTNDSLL

Row | SMILES | intracellular cAMP level [1] | binding selectivity β2AR over β1AR [2] | Kd [2] [nM] | receptor staining [3] | competitive binding with excess unlabeled ligand [3] | fluorescence intensity retained relative to maximal ([4]; pH ~7 versus pH ~5) | EC50 ([1]; HEK 293 expressing 3′,5′-cAMP FRET sensor, 30 min incubation, room temperature, read-out: EC50 (mean ± SD)) [nM] | emission intensity decrease ([4]; at pH 8.0) [%]
1 | CN(CCC(=O)NCCOCCOCCOCCOCCC(=O)NCCC(C)(C)NCC(O)COc1cccc2[nH]c3ccccc3c12)C(=O)c1c(F)c(F)c(F)c(F)c1C1=c2cc3c4c(c2Oc2c1cc1c5c2CCCN5C(C)(C)C=C1CS(=O)(=O)O)CCC[N+]=4C(C)(C)C=C3CS(=O)(=O)[O-] (stereo not shown) [Carazolol-KK114 (24)] | did not change | three-fold | 14.7 ± 0.9 | plasma membrane localized receptor staining | efficiently displaced | about 90% | – | –
2 | Cc1c(CCC(=O)NCCOCCOCCNC(=O)CCN(C)C(=O)c2c(F)c(F)c(F)c(F)c2C2=c3cc4c5c(c3Oc3c2cc2c6c3CCCN6C(C)(C)C=C2CS(=O)(=O)O)CCC[N+]=5C(C)(C)C=C4CS(=O)(=O)[O-])cccc1CC(C)(C)NCC(O)c1ccc(O)c2c1OCC(=O)N2 (stereo not shown) [BI-PEG-KK114 (18)] | induces intracellular cAMP level increase | nine-fold | 7.2 ± 0.6 | plasma membrane localized receptor staining | no background fluorescence | – | 5.7 ± 2.2 | 30
